ChEMBL document CHEMBL4033674, “Bivalent O-glycoside mimetics with S/disulfide/Se substitutions and aromatic core: Synthesis, molecular modeling and inhibitory activity on biomedically relevant lectins in assays of increasing physiological relevance” (Bioorg Med Chem, 2017)
Active and inactive are the calls of the source. The calls are words filed in the database; no cut-off is given here.

Experiments:
[1] = biological target: Galectin-3 (Homo sapiens) (UniProt P17931); assay: Inhibition of biotinylated chimera type galectin-3 in human Capan-1 cells after 30 mins by FACS analysis relative to control; assay type: cell-based
Galectin-3 (Homo sapiens), sequence (P17931 whole entry): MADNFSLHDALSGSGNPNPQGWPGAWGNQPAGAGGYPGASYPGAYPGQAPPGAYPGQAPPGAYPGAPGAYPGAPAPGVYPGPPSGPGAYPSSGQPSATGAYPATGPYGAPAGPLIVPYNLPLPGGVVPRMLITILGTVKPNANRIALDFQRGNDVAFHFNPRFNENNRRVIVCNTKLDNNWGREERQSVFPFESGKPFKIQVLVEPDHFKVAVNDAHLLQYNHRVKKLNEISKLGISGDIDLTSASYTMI

[2] = biological target: T1, Galectin-8 (Mus musculus) (UniProt Q9JL15); assay: Inhibition of galectin-8 in C57BL/6 mouse jejunum using SK-5100 as substrate incubated for 30 mins by VAA staining based microscopic analysis relative to free lactose
T1 sequence (whole entry): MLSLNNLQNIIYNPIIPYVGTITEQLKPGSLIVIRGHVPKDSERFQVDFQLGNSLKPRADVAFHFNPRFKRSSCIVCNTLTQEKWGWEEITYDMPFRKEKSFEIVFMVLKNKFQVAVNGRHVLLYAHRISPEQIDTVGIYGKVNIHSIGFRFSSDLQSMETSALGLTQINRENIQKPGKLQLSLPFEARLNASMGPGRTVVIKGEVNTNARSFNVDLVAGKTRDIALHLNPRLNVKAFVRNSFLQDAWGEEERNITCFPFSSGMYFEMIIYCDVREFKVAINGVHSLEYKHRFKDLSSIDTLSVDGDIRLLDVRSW

[3] = biological target: T2, Galectin-8 (Homo sapiens) (UniProt O00214); assay: Inhibition of biotinylated tandem repeat type galectin-8 in human Capan-1 cells after 30 mins by FACS analysis relative to control; assay type: cell-based
T2 sequence (whole entry): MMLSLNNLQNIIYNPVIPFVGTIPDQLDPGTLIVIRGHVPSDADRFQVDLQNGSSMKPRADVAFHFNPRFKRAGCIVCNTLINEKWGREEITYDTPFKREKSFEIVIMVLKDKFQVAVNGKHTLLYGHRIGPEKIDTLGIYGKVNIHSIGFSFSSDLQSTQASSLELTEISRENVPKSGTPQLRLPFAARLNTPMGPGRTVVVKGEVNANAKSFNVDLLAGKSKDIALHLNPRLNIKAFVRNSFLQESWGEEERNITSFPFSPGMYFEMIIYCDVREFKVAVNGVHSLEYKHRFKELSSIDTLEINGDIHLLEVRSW

[4] = biological target: Galectin-1 (Mus musculus) (UniProt P16045); assay: Inhibition of galectin-1 in C57BL/6 mouse jejunum using SK-5100 as substrate incubated for 30 mins by VAA staining based microscopic analysis relative to free lactose
Galectin-1 (Mus musculus), sequence (P16045 whole entry): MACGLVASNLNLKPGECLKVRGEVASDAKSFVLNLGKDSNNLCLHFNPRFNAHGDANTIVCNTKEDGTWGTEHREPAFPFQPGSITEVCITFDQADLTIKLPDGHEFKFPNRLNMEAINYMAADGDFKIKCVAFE

Galectin-3 = Galectin-3 (Mus musculus, UniProt P16110); assay: Inhibition of galectin-3 in C57BL/6 mouse jejunum using SK-5100 as substrate incubated for 30 mins by VAA staining based microscopic analysis
Galectin-3, sequence (P16110 whole entry): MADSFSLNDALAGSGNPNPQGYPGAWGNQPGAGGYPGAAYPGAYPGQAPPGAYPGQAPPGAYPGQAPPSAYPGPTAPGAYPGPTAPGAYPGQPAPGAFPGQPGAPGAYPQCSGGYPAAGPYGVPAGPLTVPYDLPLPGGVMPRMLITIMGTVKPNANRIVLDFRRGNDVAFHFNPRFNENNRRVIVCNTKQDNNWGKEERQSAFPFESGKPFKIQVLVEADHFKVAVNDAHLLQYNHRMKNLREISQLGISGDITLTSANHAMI

[5] = biological target: Galectin-1 (Homo sapiens) (UniProt P09382); assay: Inhibition of biotinylated proto type galectin-1 in human Capan-1 cells after 30 mins by FACS analysis relative to control; assay type: cell-based
Galectin-1 (Homo sapiens), sequence (P09382 whole entry): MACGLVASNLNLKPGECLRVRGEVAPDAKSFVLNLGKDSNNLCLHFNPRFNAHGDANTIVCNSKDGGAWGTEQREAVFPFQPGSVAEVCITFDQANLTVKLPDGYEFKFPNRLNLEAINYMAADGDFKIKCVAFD

[6] = Inhibition of lectin in C57BL/6 mouse kidney using SK-5100 as substrate incubated for 30 mins by VAA staining based microscopic analysis

Row | SMILES | fold change (FC) [1] | fold change (FC) [3] | fold change (FC) [5] | other results
1 | OC[C@H]1O[C@@H](O[C@H]2[C@H](O)[C@@H](O)[C@H](SSCc3ccc(CSS[C@@H]4O[C@H](CO)[C@@H](O[C@@H]5O[C@H](CO)[C@H](O)[C@H](O)[C@H]5O)[C@H](O)[C@H]4O)c4ccccc34)O[C@@H]2CO)[C@H](O)[C@@H](O)[C@H]1O | – | – | – | inhibition [1]: Active; fold change (FC) [2]: 100; inhibition [3]: Active; fold change (FC) [4]: 6; IC50 (Galectin-3): 25 µM; inhibition [5]: Active
2 | OC[C@H]1O[C@@H]([Se]Cc2ccc3cc(C[Se][C@@H]4O[C@H](CO)[C@H](O)[C@H](O)[C@H]4O)ccc3c2)[C@H](O)[C@@H](O)[C@H]1O | 2.5 to 10 | 2.5 to 10 | 2.5 to 10 | IC50 [6]: 500 to 1000 µM
3 | OC[C@H]1O[C@@H]([Se]Cc2ccc(C[Se][C@@H]3O[C@H](CO)[C@H](O)[C@H](O)[C@H]3O)c3ccccc23)[C@H](O)[C@@H](O)[C@H]1O | 2.5 to 10 | 2.5 to 10 | 2.5 to 10 | –
4 | OC[C@H]1O[C@@H](SCc2ccc(CS[C@@H]3O[C@H](CO)[C@H](O)[C@H](O)[C@H]3O)c3ccccc23)[C@H](O)[C@@H](O)[C@H]1O | 2.5 to 10 | 2.5 to 10 | 2.5 to 10 | –
5 | OC[C@H]1O[C@@H]([Se]Cc2cccc(C[Se][C@@H]3O[C@H](CO)[C@H](O)[C@H](O)[C@H]3O)c2)[C@H](O)[C@@H](O)[C@H]1O | 2.5 to 10 | 2.5 to 10 | 2.5 to 10 | –
6 | OC[C@H]1O[C@@H]([Se]Cc2ccc(C[Se][C@@H]3O[C@H](CO)[C@H](O)[C@H](O)[C@H]3O)cc2)[C@H](O)[C@@H](O)[C@H]1O | 2.5 to 10 | 2.5 to 10 | 2.5 to 10 | –
7 | O=C[C@H](O)[C@@H](O)[C@@H](O)[C@H](O)CO [GALACTOSE] | – | – | – | IC50 [6]: 5000 µM
8 | OC[C@H]1O[C@@H](SSCc2ccc(CSS[C@@H]3O[C@H](CO)[C@H](O)[C@H](O)[C@H]3O)c3ccccc23)[C@H](O)[C@@H](O)[C@H]1O | 2.5 to 10 | 2.5 to 10 | 2.5 to 10 | IC50 [6]: 500 to 1000 µM
9 | OC[C@H]1O[C@@H](O[C@H]2[C@H](O)[C@@H](O)[C@H](SCc3ccc(CS[C@@H]4O[C@H](CO)[C@@H](O[C@@H]5O[C@H](CO)[C@H](O)[C@H](O)[C@H]5O)[C@H](O)[C@H]4O)c4ccccc34)O[C@@H]2CO)[C@H](O)[C@@H](O)[C@H]1O | – | – | – | inhibition [1]: inactive; fold change (FC) [2]: 50; inhibition [3]: inactive; IC50 (Galectin-3): 50 µM; inhibition [5]: inactive
10 | OC[C@H]1O[C@@H](SSCc2cccc3c(CSS[C@@H]4O[C@H](CO)[C@H](O)[C@H](O)[C@H]4O)cccc23)[C@H](O)[C@@H](O)[C@H]1O | 2.5 to 10 | 2.5 to 10 | 2.5 to 10 | –
11 | OC[C@H]1O[C@@H]([Se]Cc2cccc3c(C[Se][C@@H]4O[C@H](CO)[C@H](O)[C@H](O)[C@H]4O)cccc23)[C@H](O)[C@@H](O)[C@H]1O | 2.5 to 10 | 2.5 to 10 | 2.5 to 10 | –
